Measured values taken from ChEMBL document CHEMBL3045275, “Synthesis and antibacterial activity of some new hydrazones” (2013).

How the values were obtained:
Assay type in all cases: functional
Conditions in all cases: read-out: DIZ
[1] = tested on: Staphylococcus aureus; experiment: Antibacterial activity against Staphylococcus aureus assessed as diameter of growth inhibition zone at 50 ug/ml after 24 hr by agar diffusion method
[2] = tested on: Pseudomonas aeruginosa; experiment: Antibacterial activity against Pseudomonas aeruginosa assessed as diameter of growth inhibition zone at 100 ug/ml after 24 hr by agar diffusion method
[3] = tested on: Staphylococcus aureus; experiment: Antibacterial activity against Staphylococcus aureus assessed as diameter of growth inhibition zone at 100 ug/ml after 24 hr by agar diffusion method
[4] = tested on: Pseudomonas aeruginosa; experiment: Antibacterial activity against Pseudomonas aeruginosa assessed as diameter of growth inhibition zone at 50 ug/ml after 24 hr by agar diffusion method
[5] = tested on: Proteus mirabilis; experiment: Antibacterial activity against Proteus mirabilis assessed as diameter of growth inhibition zone at 100 ug/ml after 24 hr by agar diffusion method
[6] = tested on: Bacillus subtilis; experiment: Antibacterial activity against Bacillus subtilis assessed as diameter of growth inhibition zone at 100 ug/ml after 24 hr by agar diffusion method
[7] = tested on: Bacillus subtilis; experiment: Antibacterial activity against Bacillus subtilis assessed as diameter of growth inhibition zone at 50 ug/ml after 24 hr by agar diffusion method
[8] = tested on: Escherichia coli; experiment: Antibacterial activity against Escherichia coli assessed as diameter of growth inhibition zone at 50 ug/ml after 24 hr by agar diffusion method
[9] = tested on: Salmonella typhi; experiment: Antibacterial activity against Salmonella enterica subsp. enterica serovar Typhi assessed as diameter of growth inhibition zone at 50 ug/ml after 24 hr by agar diffusion method
[10] = tested on: Proteus mirabilis; experiment: Antibacterial activity against Proteus mirabilis assessed as diameter of growth inhibition zone at 50 ug/ml after 24 hr by agar diffusion method
[11] = tested on: Escherichia coli; experiment: Antibacterial activity against Escherichia coli assessed as diameter of growth inhibition zone at 100 ug/ml after 24 hr by agar diffusion method
[12] = tested on: Salmonella typhi; experiment: Antibacterial activity against Salmonella enterica subsp. enterica serovar Typhi assessed as diameter of growth inhibition zone at 100 ug/ml after 24 hr by agar diffusion method

Structure (SMILES): O=[N+]([O-])c1ccc(N/N=C(/C=C/c2ccccc2)c2ccccc2)c([N+](=O)[O-])c1
- zone of inhibition at 50 µg/mL [1]: 6 mm
- zone of inhibition at 100 µg/mL [2]: 8.5 mm
- zone of inhibition at 100 µg/mL [3]: 8.5 mm
- zone of inhibition at 50 µg/mL [4]: 6 mm
- zone of inhibition at 100 µg/mL [5]: 9.5 mm
- zone of inhibition at 100 µg/mL [6]: 9 mm
- zone of inhibition at 50 µg/mL [7]: 6.5 mm
- zone of inhibition at 50 µg/mL [8]: 6.5 mm
- zone of inhibition at 50 µg/mL [9]: 6.5 mm
- zone of inhibition at 50 µg/mL [10]: 6.5 mm
- zone of inhibition at 100 µg/mL [11]: 8 mm
- zone of inhibition at 100 µg/mL [12]: 8.5 mm

Structure (SMILES): CC(/C=C/c1ccccc1)=N\Nc1ccccc1
- zone of inhibition at 50 µg/mL [1]: 6 mm
- zone of inhibition at 100 µg/mL [2]: 8.5 mm
- zone of inhibition at 100 µg/mL [3]: 8.5 mm
- zone of inhibition at 50 µg/mL [4]: 6 mm
- zone of inhibition at 100 µg/mL [5]: 9 mm
- zone of inhibition at 100 µg/mL [6]: 8.5 mm
- zone of inhibition at 50 µg/mL [7]: 6.5 mm
- zone of inhibition at 50 µg/mL [8]: 6 mm
- zone of inhibition at 50 µg/mL [9]: 6.5 mm
- zone of inhibition at 50 µg/mL [10]: 6 mm
- zone of inhibition at 100 µg/mL [11]: 8.5 mm
- zone of inhibition at 100 µg/mL [12]: 8.5 mm

Structure (SMILES): CC1=NC(=C/c2ccccc2)/C(=N/Nc2ccccc2)O1
- zone of inhibition at 50 µg/mL [1]: 14 mm
- zone of inhibition at 100 µg/mL [2]: 8 mm
- zone of inhibition at 100 µg/mL [3]: 16 mm
- zone of inhibition at 50 µg/mL [4]: 6 mm
- zone of inhibition at 100 µg/mL [5]: 8.5 mm
- zone of inhibition at 100 µg/mL [6]: 9.5 mm
- zone of inhibition at 50 µg/mL [7]: 6 mm
- zone of inhibition at 50 µg/mL [8]: 6.5 mm
- zone of inhibition at 50 µg/mL [9]: 6 mm
- zone of inhibition at 50 µg/mL [10]: 6.5 mm
- zone of inhibition at 100 µg/mL [11]: 9 mm
- zone of inhibition at 100 µg/mL [12]: 8 mm

Structure (SMILES): CC1=NC(=C/c2ccccc2)/C(=N/Nc2ccc([N+](=O)[O-])cc2[N+](=O)[O-])O1
- zone of inhibition at 50 µg/mL [1]: 6.5 mm
- zone of inhibition at 100 µg/mL [2]: 8.5 mm
- zone of inhibition at 100 µg/mL [3]: 9 mm
- zone of inhibition at 50 µg/mL [4]: 6 mm
- zone of inhibition at 100 µg/mL [5]: 9.5 mm
- zone of inhibition at 100 µg/mL [6]: 9 mm
- zone of inhibition at 50 µg/mL [7]: 6 mm
- zone of inhibition at 50 µg/mL [8]: 6 mm
- zone of inhibition at 50 µg/mL [9]: 6.5 mm
- zone of inhibition at 50 µg/mL [10]: 6 mm
- zone of inhibition at 100 µg/mL [11]: 8.5 mm
- zone of inhibition at 100 µg/mL [12]: 8 mm

Structure (SMILES): CC(/C=C/c1ccccc1)=N/Nc1nc(-c2ccccc2)cs1
- zone of inhibition at 50 µg/mL [1]: 6.5 mm
- zone of inhibition at 100 µg/mL [2]: 8 mm
- zone of inhibition at 100 µg/mL [3]: 9.5 mm
- zone of inhibition at 50 µg/mL [4]: 6 mm
- zone of inhibition at 100 µg/mL [5]: 8 mm
- zone of inhibition at 100 µg/mL [6]: 8.5 mm
- zone of inhibition at 50 µg/mL [7]: 6 mm
- zone of inhibition at 50 µg/mL [8]: 6 mm
- zone of inhibition at 50 µg/mL [9]: 6 mm
- zone of inhibition at 50 µg/mL [10]: 6.5 mm
- zone of inhibition at 100 µg/mL [11]: 9 mm
- zone of inhibition at 100 µg/mL [12]: 8 mm
